“Also recorded” adds a separate entry of the source. Primed or numbered codes have the meaning given here. Ends that are not written are not given here. Baa″ = fullerene (C60, Bucky) amino acid derivative of phenylalanine; Baa = not defined here
How the values were obtained:
[1] = Peptide secondary structure (CD) and appearance (TEM) as a function of pH; assay type: physicochemical; conditions: for Secondary structure with decreasing pH: CD spectra; for Appearance / diameter of non-fibrous particles: TEM; for diameter of non-fibrous particles: micelles at pH 4 (21), precipitate particles at pH 6 and lower (22)
Method: (§1) Rink amide and Wang resin were obtained from Novabiochem, USA. Amino acids were purchased from Novabiochem and used as received. MALDI-TOF mass analysis was performed on a linear Protein-TOF Bruker instrument using sinipinic acid as the matrix. CD spectra were obtained on a Jasco J-700 dichrometer using 1 mm path-length quartz cells. Peptide solutions were 1.0 mg·mL^−1 solution in milliQ H2O or PBS buffer. In the case of peptides (21, 22 and 23), the pH was first adjusted to 10 to break up any aggregations and then adjusted by addition of 0.1 mM HCl until the desired pH was obtained. CD spectra were recorded in millidegrees and converted to residual molar ellipticity. TEM measurements were performed on a JEOL 2010 TEM at 200 kV. DLS Measurements were performed on the samples using an Brookhaven 90Plus submicron particle-size analyzer with HeNe laser (30 mW) that operates at […] wavelength.
Control of peptide secondary structure by fullerene amino acids. In an effort to understand the effect of the C60 substituents on the secondary structure of a peptide we have investigated two sequences and the position within a particular sequence. The well characterized model heptad peptides Glu-Ile-Ala-Gln-Leu-Glu-Tyr-Glu-Ile-Ser-Gln-Leu-Glu-Gln-NH2 (2HP, 22 in Table 1) […]NH2 (3HP, 23 in Table 1) were chosen because they are known to form fibers at pH below 7 concomitant with β-sheet formation. To investigate the effects of the presence and C60 on the conformation of the peptide the model peptide 2HP was prepared in which either tyrosine was replaced by Baa (21 in Table 1) or Baa was added to the C-terminus (22 in Table 1). The C-terminus derivative 23 was also prepared for 3HP.

[2] = Peptide aggregation, particle size in solution by dynamic light scattering (DLS); assay type: physicochemical; conditions: PBS buffer; for aggregate size, major (or single) component: 0.125-2.0 mg/mL
Method: as §1
With reference back to Table 1, in order to understand the intracellular transport of the FITC functionalized Baa-peptides, 25 and Baa-Lys(FITC)-NLS (26), their particle size in solution was determined by dynamic light scattering (DLS). Three series of solutions of 24, 25 and 26 in the range of 0.125-2.0 mg/mL was prepared by weighing method. PBS buffer prepared from HPLC grade water was used as solvent and was filtered through a […] cup filter (Millipore, Express).

IMR32 cancer cell line = test: Cellular proliferation, CCK-8 assay; assay type: cell-based
Method: Cellular proliferation studies. Cancer cells at 5×10^4 cells/well were plated in triplicate in standard flat-bottomed 96-well tissue culture plates in the presence of fullerene peptides in PBS buffer with a final volume of 100 μL. Unless otherwise indicated, cells were grown for 48 h at 37° C. in a CO2 incubator. Relative cell growth was determined by Cell Counting Kit-8 (CCK-8) cell proliferation assay as described by the manufacturer using an automated plate reader. Results were calculated in a blinded fashion and are the means of bi or triplicate determinations. […] This difference is possibly because the relative propensity of Baa-2HP to precipitate under acidic conditions is less than that of Baa-3HP. Thus, the formation of aggregates of Baa-3HP would cause the inhibition of cell growth. However, we cannot discount alternative factors such as the sequence and its overall charge differences. For example, the strength of the aggregate may be greater for Baa-3HP than Baa-2HP due to the stronger self-assembly forces in 3HP.

[3] = system: MCF-7 breast cancer cells; test: Cellular proliferation, CCK-8 assay; assay type: cell-based; conditions: MCF-7, 48 h, concentration given with value
Method: (§2) Cellular proliferation studies. Cancer cells at 5×10^4 cells/well were plated in triplicate in standard flat-bottomed 96-well tissue culture plates in the presence of fullerene peptides in PBS buffer with a final volume of 100 μL. Unless otherwise indicated, cells were grown for 48 h at 37° C. in a CO2 incubator. Relative cell growth was determined by Cell Counting Kit-8 (CCK-8) cell proliferation assay as described by the manufacturer using an automated plate reader. Results were calculated in a blinded fashion and are the means of bi or triplicate determinations.
The effect of different Baa-peptide sequences on the cell viability of MCF-7 breast cancer cells was investigated to determine if the sequence has an effect rather than the presence of the C60. […] This is in agreement with the MTT cell viability test (see above). […] Clearly the sequence has a significant effect on the cell viability. However, it is worth noting that this may be due to either inherent differences in toxicity or differences in cellular uptake.

[4] = system: MDA-MB neoroblastoma cells; test: Cellular proliferation, CCK-8 assay; assay type: cell-based; conditions: 48 h
Method: as §2
A similar comparison has been made with MDA-MB neoroblastoma cells (FIG. 25) using H-Baa-Lys(FITC)-NLS (26), Baa-Penetratin (29) and Baa-Glu-Glu-Glu-Glu-Gly-Gly-Gly-Ser-OH (27). […] Given that both H-Baa-Lys(FITC)-NLS and Baa-Penetratin are cationic peptides which are readily taken up by the cells the cell inhibition cannot be a function of the uptake (i.e., intracellular concentration), but must also be dependent on the sequence.

HEK-293a cells [5] = test: Cellular uptake by fluorescence microscopy; assay type: cell-based, human; conditions: for cellular uptake / localization by fluorescence: 40 μM, 24 hrs, 37° C.; for Active Cellular Uptake: HEK-293a cells
Method: Cellular uptake. An immortalized human embryonic kidney epithelial cancer cell line was used in initial cellular uptake studies. HEK-293a cells were cultured in RMPI 1640 medium supplemented with 10% fetal bovine serum (FBS) in 5% CO2 and 37° C. humidified incubator. The medium was supplemented with penicillin (100 U·mL^−1), streptomycin (100 μg/mL), and glutamine (2 mM). For experiments and microscopy, cells were seeded at 1×10^4 cells per well on 6-well plates and grown for two days in RPMI supplemented with 10%. Cells were incubated with each peptide (40 μM) for 24 hrs at 37° C. After treatment, the cells were washed with RPMI supplemented with 10% FBS and phosphate buffered saline (PBS, 10 mM). Fluorescence was observed by a fluorescent microscope equipped with FITC and red filters.

[6] = assay type: in vitro ADME, bovine
Description: Peptide stability. In order to test the stability of the fullerene peptide linkage, samples of Baa-Lys(FITC)-Lys8-OH and H-Baa-Lys(FITC)-NLS were exposed to bovine plasma for up to 3 days and analyzed by HPLC.

HEK-293a cells [7] = test: Cellular uptake by fluorescence microscopy; assay type: cell-based, human
[8] = Aggregate size and morphology by cryo-TEM; assay type: physicochemical; conditions: 1.0 mg/mL in PBS buffer, pH 7
Method: To further examine the actual aggregate size and morphology, cryo-TEM experiments were performed for both peptides 25 and 26. The images were taken in the concentration of 1.0 mg/mL for both peptides. Samples for cryo-TEM studies were prepared by dipping a copper grid coated with amorphous carbon-holey film into the sample solution. The TEM images were mainly taken in the hole region of the TEM grid to minimize the artificial effect from the samples or ice. […] Both peptides forms spherical and ellipsoidal clusters, with an average aggregate sizes of 40-80 nm for 25 and 50-150 nm for 26, which are generally smaller than the diameters observed by DLS. Consistent with the DLS study, Baa-Lys(FITC)-Lys8-OH (25) are more uniform in size than Baa-Lys(FITC)-NLS (26). FIGS. 9a and 9b show the vitreous ice cryo-TEM micrograph of the large aggregates (9a) and small aggregates (9b) formed by Baa-Lys(FITC)-Lys8-OH in PBS buffer (1 mg/mL at pH=7). There are two dominant groups in size for 25; one type has the diameter of 40-80 nm with predominant population at size of ca. 50 nm, and the other population has a diameter less than 20 nm, which may correspondent to the size of fullerene peptides itself. In contrast, the size distribution of 26 large aggregates is much polydisperse, ranging from 50-150 nm with no obvious dominant population for large aggregates, while smaller aggregates has similar size as Baa-Lys(FITC)-Lys8-OH. FIGS. 10a and 10b show the vitreous ice cryo-TEM micrograph of the large aggregates (10a) and small aggregates (10b) formed by Baa-Lys(FITC)-NLS in PBS buffer (1 mg/mL at pH=7). The aggregate sizes from the two peptides seem to be consistent with the hydrophilicity of peptide chain as more hydrophilic sequence corresponds to smaller size (25), and vice versa (26).

[9] = Antioxidant properties (IC50 determined by Csixty Inc. through an established method); assay type: biochemical
Description: A plot of inhibition as a function of concentration for peptide 27 is shown in FIG. 18 with a comparison of Baa and Trolox. […] It is unclear at the present time the reason for the slight reduction in activity between Baa and Baa-Glu-Glu-Glu-Glu-Gly-Gly-Gly-Ser-OH. Given that the peptide's aggregation in aqueous solution presumably results in the “Glu-Glu-Glu-Glu-Gly-Gly-Gly-Ser-OH” being exposed to the solution, the sequence could act as a buffer limiting electron transfer processes.

## Glu-Ile-Ala-Gln-Leu-Glu-Tyr-Glu-Ile-Ser-Gln-Leu-Glu-Gln-Gln-Glu-Ile-Gln-Ala-Leu-Glu-Ser-NH2 (EIAQLEYEISQLEQQEIQALES-NH2) [Peptide 3HP, parent model heptad peptide without Baa, reference compound]
[1]
  Secondary structure with decreasing pH: random coil → α-helix
  Appearance: fibers

## Baa-(Lys)8-OH [Peptide 24]
[2]
  aggregate size, major (or single) component: ca. 200 nm
[2]; 0.25-2.0 mg/mL
  aggregate distribution, single broad aggregate: 50-350 nm

## Baa-Glu-Ile-Ala-Gln-Leu-Glu-Tyr-Glu-Ile-Ser-Gln-Leu-Glu-Gln-Glu-Ile-Gln-Ala-Leu-Glu-Ser-NH2 ({Baa″}-EIAQLEYEISQLEQEIQALES-NH2) [Peptide 23]
IMR32 cancer cell line; IMR32, 100 μg·mL^−1 (29.4 μM)
  inhibition of cell growth: significant inhibition
[1]
  Secondary structure with decreasing pH: α-helix coiled
  Appearance: fibers
[3]
  inhibition of cell growth: no obvious inhibition
[4]
  inhibition of cell growth: no obvious inhibition

## Lys(FITC)-(Lys)8-OH [reference compound]
HEK-293a cells [5]
  cellular uptake / localization by fluorescence: no uptake
  Active Cellular Uptake: No

## Glu-Ile-Ala-Gln-Leu-Glu-Baa-Glu-Ile-Ser-Gln-Leu-Glu-Gln-NH2 [Peptide 21]
[1]
  Secondary structure with decreasing pH: β-sheet
  Appearance: fibers^a
  diameter of non-fibrous particles: 8-10 nm

## Glu-Ile-Ala-Gln-Leu-Glu-Tyr-Glu-Ile-Ser-Gln-Leu-Glu-Gln-NH2 (EIAQLEYEISQLEQ-NH2) [Peptide 2HP, parent model heptad peptide without Baa, reference compound]
[1]
  Secondary structure with decreasing pH: random coil → α-helix → β-sheet
  Appearance: fibers

## Baa-Lys(FITC)-Glu-Glu-Glu-Glu-Gly-Gly-Gly-Ser-OH ({Baa″-Lys(FITC)}-EEEEGGGS-OH) [Peptide 28]
HEK-293a cells [5]; same concentration, cell line not restated
  uptake intensity in comparison with the cationic fullerene peptides: greatly reduced

## Baa-Lys(FITC)-(Lys)8-OH [Peptide 25]
HEK-293a cells [5]; listed as H-Baa-Lys(FITC)-Lys8-OH
  cellular uptake / localization by fluorescence: strong green fluorescence within the cytoplasm; also recorded: accumulates in the cytoplasm
HEK-293a cells [5]
  Active Cellular Uptake: Yes
[6]
  degradation of the sample in bovine plasma: No degradation
[2]
  aggregate size, minor smaller component: ca. 10 nm
  fraction of major aggregate component: ca. 60%
  aggregate size, major (or single) component: ca. 180 nm
[2]; 2.0 mg/mL (25), above 1.0 mg/mL (26)
  third larger aggregate size at high concentration: ca. 1500 nm
[2]; 0.125-1.0 mg/mL
  distribution of minor smaller aggregate: 5-20 nm
HEK-293a cells [7]
  cellular uptake at 4° C.: no cellular uptake activity
[8]
  average aggregate size (large aggregates): 40-80 nm
  diameter of small aggregate population: less than 20 nm
  predominant population size of large aggregates: ca. 50 nm

## Cc1c(C)c2c(c(C)c1O)CCC(C)(C(=O)O)O2 (stereo not drawn) [Trolox, reference compound]
[9]
  IC50: 480 µM

## Baa-Arg-Gln-Ile-Lys-Ile-Trp-Phe-Gln-Asn-Arg-Arg-Met-Lys-Trp-Lys-Lys-OH (Baa-RQIKIWFQNRRMKWKK-OH; reading uncertain) [Peptide 29]
[3]
  inhibition of cell growth: significant inhibition effect at 31.4 μM
[4]
  inhibition of cell growth: significant inhibition for solutions above 8-14 μM

## Baa-Glu-Ile-Ala-Gln-Leu-Glu-Tyr-Glu-Ile-Ser-Gln-Leu-Glu-Gln-NH2 ({Baa″}-EIAQLEYEISQLEQ-NH2) [Peptide 22]
IMR32 cancer cell line; IMR32, up to 37 μM
  inhibition of cell growth: no inhibition
[1]
  Secondary structure with decreasing pH: random coil → α-helix
  Appearance: aggregates
  diameter of non-fibrous particles: approximately 20 nm
[3]
  inhibition of cell growth: no obvious inhibition
[4]
  inhibition of cell growth: no obvious inhibition

## Baa-Glu-Glu-Glu-Glu-Gly-Gly-Gly-Ser-OH ({Baa″}-EEEEGGGS-OH) [Peptide 27]
[3]
  inhibition of cell growth: no cellular inhibition up to 57 μM
[9]
  IC50: 89 µM
[9]; molar, from IC50
  antioxidant activity relative to Trolox: ca. five fold
[4]
  inhibition of cell growth: significant inhibition for solutions above 8-14 μM
